According to the supplement of paper PMC3937590:

Experiments:
Experiment in all cases: -log10 GI50 (growth inhibition 50%) (-log10(M)); higher = more potent growth inhibition
[1] = test system: 184A1
Method in brief: (§1)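 Breast cancer cell lines were treated with each compound for 72 hours at nine doses in 1:5 serial dilution, in triplicate, and luminescence was read against a time-zero plate. A Gompertz curve was fitted to the dose-response data by nonlinear least squares to obtain GI50, the molar concentration giving the set level of growth inhibition, which is reported as its negative logarithm. The logarithm is base 10, and values equal to the top dose carry a < qualifier.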

[2] = test system: 184B5
Method in brief: as §1

[3] = test system: 600MPE
Method in brief: as §1

[4] = test system: AU565
Method in brief: as §1

[5] = test system: BT20
Method in brief: as §1

[6] = test system: BT474
Method in brief: as §1

[7] = test system: BT483
Method in brief: as §1

[8] = test system: BT549
Method in brief: as §1

[9] = test system: CAMA1
Method in brief: as §1

[10] = test system: HCC1143
Method in brief: as §1

[11] = test system: HCC1187
Method in brief: as §1

[12] = test system: HCC1395
Method in brief: as §1

[13] = test system: HCC1419
Method in brief: as §1

[14] = test system: HCC1428
Method in brief: as §1

[15] = test system: HCC1569
Method in brief: as §1

[16] = test system: HCC1806
Method in brief: as §1

[17] = test system: HCC1937
Method in brief: as §1

[18] = test system: HCC1954
Method in brief: as §1

[19] = test system: HCC2185
Method in brief: as §1

[20] = test system: HCC3153
Method in brief: as §1

[21] = test system: HCC38
Method in brief: as §1

[22] = test system: HCC70
Method in brief: as §1

[23] = test system: HS578T
Method in brief: as §1

[24] = test system: LY2
Method in brief: as §1

[25] = test system: MCF10A
Method in brief: as §1

[26] = test system: MCF10F
Method in brief: as §1

[27] = test system: MCF12A
Method in brief: as §1

[28] = test system: MCF7
Method in brief: as §1

[29] = test system: MDAMB134VI
Method in brief: as §1

[30] = test system: MDAMB157
Method in brief: as §1

[31] = test system: MDAMB175VII
Method in brief: as §1

[32] = test system: MDAMB231
Method in brief: as §1

[33] = test system: MDAMB361
Method in brief: as §1

[34] = test system: MDAMB415
Method in brief: as §1

[35] = test system: MDAMB453
Method in brief: as §1

[36] = test system: MX1
Method in brief: as §1

[37] = test system: SKBR3
Method in brief: as §1

[38] = test system: SUM1315MO2
Method in brief: as §1

[39] = test system: SUM149PT
Method in brief: as §1

[40] = test system: SUM159PT
Method in brief: as §1

[41] = test system: SUM185PE
Method in brief: as §1

[42] = test system: SUM225CWN
Method in brief: as §1

[43] = test system: SUM229PE
Method in brief: as §1

[44] = test system: SUM52PE
Method in brief: as §1

[45] = test system: T47D_KBluc
Method in brief: as §1

[46] = test system: T47D
Method in brief: as §1

[47] = test system: UACC812
Method in brief: as §1

[48] = test system: ZR751
Method in brief: as §1

[49] = test system: ZR75B
Method in brief: as §1

SMILES: O=C(/C=C/C#Cc1cccc(NS(=O)(=O)c2ccccc2)c1)NO [Oxamflatin]
- -log10 GI50 [1]: 5.86
- -log10 GI50 [2]: 6.06
- -log10 GI50 [3]: 5.53
- -log10 GI50 [4]: 6.19
- -log10 GI50 [5]: 5.42
- -log10 GI50 [6]: 6.57
- -log10 GI50 [7]: 6.27
- -log10 GI50 [8]: 5.96
- -log10 GI50 [9]: 6.09
- -log10 GI50 [10]: 6.28
- -log10 GI50 [11]: 6.19
- -log10 GI50 [12]: 5.67
- -log10 GI50 [13]: 5.88
- -log10 GI50 [14]: 6.33
- -log10 GI50 [15]: 5.88
- -log10 GI50 [16]: 6.16
- -log10 GI50 [17]: 5.84
- -log10 GI50 [18]: 5.81
- -log10 GI50 [19]: 6.47
- -log10 GI50 [20]: 5.82
- -log10 GI50 [21]: 6.77
- -log10 GI50 [22]: 6.36
- -log10 GI50 [23]: 5.86
- -log10 GI50 [24]: 5.89
- -log10 GI50 [25]: 6.14
- -log10 GI50 [26]: 5.41
- -log10 GI50 [27]: 5.76
- -log10 GI50 [28]: 5.74
- -log10 GI50 [29]: 6.18
- -log10 GI50 [30]: 6.13
- -log10 GI50 [31]: 5.41
- -log10 GI50 [32]: 5.58
- -log10 GI50 [33]: 6.15
- -log10 GI50 [34]: 6.22
- -log10 GI50 [35]: 6.56
- -log10 GI50 [36]: 6.32
- -log10 GI50 [37]: 5.95
- -log10 GI50 [38]: 5.64
- -log10 GI50 [39]: 6.23
- -log10 GI50 [40]: 6.5
- -log10 GI50 [41]: 6.51
- -log10 GI50 [42]: 6.06
- -log10 GI50 [43]: 5.74
- -log10 GI50 [44]: 6.23
- -log10 GI50 [45]: 5.9
- -log10 GI50 [46]: 6.06
- -log10 GI50 [47]: 5.75
- -log10 GI50 [48]: 5.65
- -log10 GI50 [49]: 6.41

SMILES: O=S(=O)(CC1CS1)c1ccc(Oc2ccccc2)cc1 (centres undefined) [SB-3CT]
- -log10 GI50 [1]: < 3.78
- -log10 GI50 [2]: < 3.78
- -log10 GI50 [3]: < 4
- -log10 GI50 [4]: < 4
- -log10 GI50 [5]: 4.21
- -log10 GI50 [6]: 4.99
- -log10 GI50 [7]: 4.59
- -log10 GI50 [8]: 5.17
- -log10 GI50 [9]: < 4
- -log10 GI50 [10]: < 4
- -log10 GI50 [11]: 4.83
- -log10 GI50 [12]: 4.03
- -log10 GI50 [13]: < 3.78
- -log10 GI50 [14]: 4.24
- -log10 GI50 [15]: < 3.78
- -log10 GI50 [16]: < 4
- -log10 GI50 [17]: < 4
- -log10 GI50 [18]: < 4
- -log10 GI50 [19]: 4.33
- -log10 GI50 [20]: < 4
- -log10 GI50 [21]: 4.31
- -log10 GI50 [22]: < 3.78
- -log10 GI50 [23]: 4.42
- -log10 GI50 [24]: < 4
- -log10 GI50 [25]: 4.05
- -log10 GI50 [26]: < 4
- -log10 GI50 [27]: < 3.78
- -log10 GI50 [28]: < 4
- -log10 GI50 [29]: < 4
- -log10 GI50 [30]: < 3.78
- -log10 GI50 [31]: < 4
- -log10 GI50 [32]: < 3.78
- -log10 GI50 [33]: < 3.78
- -log10 GI50 [34]: 4.77
- -log10 GI50 [35]: < 3.78
- -log10 GI50 [36]: 4.85
- -log10 GI50 [37]: < 4
- -log10 GI50 [38]: 4.02
- -log10 GI50 [39]: 4.27
- -log10 GI50 [40]: 4.85
- -log10 GI50 [41]: 4.75
- -log10 GI50 [42]: < 4
- -log10 GI50 [43]: < 4
- -log10 GI50 [44]: 4.33
- -log10 GI50 [45]: < 3.78
- -log10 GI50 [46]: < 4
- -log10 GI50 [47]: < 4
- -log10 GI50 [48]: < 3.78
- -log10 GI50 [49]: 4.62

SMILES: Cc1cc(C(=O)N2CCN(c3cccc(Cl)c3)CC2)n(-c2ccccc2)n1 [XRP44X]
- -log10 GI50 [1]: 6.5
- -log10 GI50 [2]: 6.55
- -log10 GI50 [3]: < 3.88
- -log10 GI50 [4]: 6.35
- -log10 GI50 [5]: 5.29
- -log10 GI50 [6]: 4.61
- -log10 GI50 [7]: 5.23
- -log10 GI50 [8]: 5.83
- -log10 GI50 [9]: 6.01
- -log10 GI50 [10]: 5.69
- -log10 GI50 [11]: 6.05
- -log10 GI50 [12]: 6.03
- -log10 GI50 [13]: < 3.88
- -log10 GI50 [14]: 5.85
- -log10 GI50 [15]: 4.6
- -log10 GI50 [16]: 5.97
- -log10 GI50 [17]: < 3.88
- -log10 GI50 [18]: 6.3
- -log10 GI50 [19]: 6.31
- -log10 GI50 [20]: 5.74
- -log10 GI50 [21]: 5.77
- -log10 GI50 [22]: 5.97
- -log10 GI50 [23]: 6
- -log10 GI50 [24]: 6.08
- -log10 GI50 [25]: 6.55
- -log10 GI50 [26]: < 3.88
- -log10 GI50 [27]: 6.67
- -log10 GI50 [28]: 6.4
- -log10 GI50 [29]: 6.09
- -log10 GI50 [30]: 5.95
- -log10 GI50 [31]: 5.44
- -log10 GI50 [32]: 5.98
- -log10 GI50 [33]: 6
- -log10 GI50 [34]: 6.2
- -log10 GI50 [35]: 6.01
- -log10 GI50 [36]: 6.04
- -log10 GI50 [38]: 6.14
- -log10 GI50 [39]: 5.88
- -log10 GI50 [40]: 6.21
- -log10 GI50 [42]: 5.5
- -log10 GI50 [43]: 6.6
- -log10 GI50 [44]: 6.06
- -log10 GI50 [46]: 5.41
- -log10 GI50 [47]: 6.15
- -log10 GI50 [48]: 5.91
- -log10 GI50 [49]: 5.9
